Results from article PMC10334278 (Journal of Pharmaceutical Analysis, 2023).

Biological target: T1, Recombinant human GSS (Homo sapiens, UniProt P48637)
T1 sequence (P48637 2-474): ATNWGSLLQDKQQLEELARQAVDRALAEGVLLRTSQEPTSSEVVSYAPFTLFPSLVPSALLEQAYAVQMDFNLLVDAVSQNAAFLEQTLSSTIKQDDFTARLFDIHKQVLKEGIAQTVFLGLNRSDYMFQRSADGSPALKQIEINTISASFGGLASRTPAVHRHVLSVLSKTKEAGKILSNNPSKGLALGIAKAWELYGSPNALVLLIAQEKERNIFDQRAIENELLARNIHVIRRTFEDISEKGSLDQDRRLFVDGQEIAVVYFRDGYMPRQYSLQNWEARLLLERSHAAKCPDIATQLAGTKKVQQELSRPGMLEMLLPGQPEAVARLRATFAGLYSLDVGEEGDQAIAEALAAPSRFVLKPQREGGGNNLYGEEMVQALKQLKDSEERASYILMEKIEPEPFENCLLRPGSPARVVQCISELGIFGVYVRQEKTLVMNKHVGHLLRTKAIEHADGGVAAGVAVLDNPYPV
Test: isothermal titration calorimetry
Type: binding

Kd: 1.09 µM
Compound: N[C@@H](CCC(=O)N[C@@H](CS)C(=O)O)C(=O)O [γ-glutamylcysteine]
